Measured values taken from patent US6372772B1, “Inhibitors of redox signaling and methods of using same” (Prolx Pharmaceuticals Corporation, priority 1997, dated 2002).
≈ marks a conversion by molar mass, not a printed value. Like-named read-outs stand apart in the source and are kept apart here.

Legend:
[1] = molecular target: T1, thioredoxin reductase/thioredoxin (Homo sapiens, UniProt Q16881); test: thioredoxin reductase/thioredoxin-dependent insulin reduction assay; assay type: biochemical
T1 sequence (Q16881 1-499 isoform Q16881-5): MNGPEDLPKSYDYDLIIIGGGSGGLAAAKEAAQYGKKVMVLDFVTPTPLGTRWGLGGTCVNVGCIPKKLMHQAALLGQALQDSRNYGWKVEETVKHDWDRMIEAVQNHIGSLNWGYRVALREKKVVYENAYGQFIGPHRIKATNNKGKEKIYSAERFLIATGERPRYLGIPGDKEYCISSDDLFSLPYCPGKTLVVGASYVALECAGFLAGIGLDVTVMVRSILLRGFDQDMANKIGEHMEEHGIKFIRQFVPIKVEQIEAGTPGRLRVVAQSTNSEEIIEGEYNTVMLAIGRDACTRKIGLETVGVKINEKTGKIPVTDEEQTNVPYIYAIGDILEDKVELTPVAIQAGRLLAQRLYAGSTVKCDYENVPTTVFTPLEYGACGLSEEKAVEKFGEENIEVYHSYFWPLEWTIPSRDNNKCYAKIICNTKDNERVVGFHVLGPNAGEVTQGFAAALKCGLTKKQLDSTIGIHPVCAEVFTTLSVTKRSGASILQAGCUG

[2] = system: HL-60 leukemia; test: HL-60 leukemia xenografts in scid mice; assay type: in vivo; details: for antitumor activity against HL-60 leukemia: a number of the animals without tumor at day 45
[3] = system: human MCF-7 breast cancer; test: MCF-7 breast cancer xenografts in scid mice; assay type: in vivo; details: for tumor inhibition: MCF-7 tumor system
[4] = system: thioredoxin-dependent cell proliferation; test: thioredoxin- versus serum-dependent cell proliferation in culture; assay type: cell-based
[5] = system: tumors in the colon; test: min (multiple intestinal neoplasia) mouse chemoprevention; assay type: in vivo; details: in the diet at 250 ppm
Excerpt: The min mouse has a germline mutation in the APC gene seen in human familial adenomatous polyposis (FAP). This model was chosen because of its genetic basis and as an alternative to chemically-induced models of colon cancer. The majority of the tumors that develops in the adult min mice are in the small intestine, although tumors are first diagnosed in the colon. FAP represents a high risk group of subjects with a readily identifiable early end-point marker that is suitable for trials of novel chemopreventive agents.

[6] = system: NCI's panel of 60 human cancer cell lines; details: cited from earlier work
[7] = molecular target: T2, glutathione reductase (Homo sapiens, UniProt P00390); test: glutathione reductase assay (DTNB reduction); assay type: biochemical
T2 sequence (P00390 1-479 isoform P00390-2): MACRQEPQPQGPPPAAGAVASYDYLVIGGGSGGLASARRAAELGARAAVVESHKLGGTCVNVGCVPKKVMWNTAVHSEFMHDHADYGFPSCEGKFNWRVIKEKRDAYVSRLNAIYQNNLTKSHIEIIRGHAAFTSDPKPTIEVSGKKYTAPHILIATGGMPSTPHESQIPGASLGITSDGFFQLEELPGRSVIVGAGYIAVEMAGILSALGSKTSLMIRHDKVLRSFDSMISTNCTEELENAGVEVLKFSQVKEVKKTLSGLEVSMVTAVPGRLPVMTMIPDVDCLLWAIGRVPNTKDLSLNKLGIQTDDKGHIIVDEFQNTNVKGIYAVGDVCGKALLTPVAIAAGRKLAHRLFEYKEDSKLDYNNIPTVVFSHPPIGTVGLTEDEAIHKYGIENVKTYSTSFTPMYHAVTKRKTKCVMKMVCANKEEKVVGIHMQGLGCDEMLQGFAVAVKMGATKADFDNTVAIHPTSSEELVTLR

[8] = system: leukemia cell line; details: cited from earlier work
[9] = molecular target: T3, thioredoxin reductase (Homo sapiens, UniProt Q16881); test: biochemical
T3 sequence (Q16881 1-499 isoform Q16881-5): T1 sequence (Q16881 1-499 isoform Q16881-5)

[10] = system: MCF-7 breast cancer cells; details: read-out: EC50 for thioredoxin growth stimulation; cited from earlier work
[11] = Table III, read-out: in vitro IC50 TR/Trx (μg/ml) (converted)
[12] = mean 50% growth inhibition concentration, entire cell line panel
[13] = Table I, 30 min preincubation, read-out: IC50 (μg/ml) in TR/Trx Assay (converted)
[14] = Table II, read-out: IC50TRTrx (μg/ml) (converted)
[15] = ratio of IC50 TR alone and IC50 TR/Trx assay
[16] = Table II, read-out: IC50GR (μg/ml) (converted)
[17] = mean 50% growth inhibition concentration, leukemias

Compound	IC50 [1, 11]	GI50 (μg/ml) All Tumors [6, 12]	IC50 [1, 13]	IC50 [1, 14]	TR/TRTrx [1, 15]	IC50 [7, 16]	GI50 (μg/ml) Leukemias [8, 17]	also measured
c1ccc(CSSc2ncc[nH]2)cc1 [DLK-36, benzyl-2-imidazolyl disulfide]	180 µM							antitumor activity against HL-60 leukemia [2]: showed antitumor activity; T/C % tumor volume at day 28 ([3]; 25 mg/kg/day for 14 days): 100.7%; T/C % tumor volume at day 28 ([3]; 40 mg/kg/day for 14 days): 23.7%; tumor inhibition [3]: 65%
CCC(C)SSc1ncc[nH]1 (centres unmarked) [IV-2, 1-methylpropyl 2-imidazolyl disulfide]								inhibition of thioredoxin- versus serum-dependent cell proliferation [4]: greater inhibition of thioredoxin than serum-dependent cell proliferation; size of remaining tumors ([5]; p<0.001 compared to control): significant reduction in the size of remaining tumors; reduction of number of tumors in the colon ([5]; p=0.0160): 70%; antitumor activity against HL-60 xenografts [2]: dose-dependent antitumor activity; antitumor activity against HL-60 leukemia [2]: showed antitumor activity; T/C % tumor volume at day 28 ([3]; 5 mg/kg/day for 14 days): 56.7%; T/C % tumor volume at day 28 ([3]; 10 mg/kg/day for 14 days): 45.9%; T/C % tumor volume at day 28 ([3]; 15 mg/kg/day for 14 days): 2.3%; tumor inhibition [3]: 98%; antitumor activity against MCF-7 xenografts ([3]; scid mice): dose-dependent antitumor activity
CCCC(=O)OC1C2C(CC1(C)C)C(=O)C13OC1C(=O)C1(CO1)C23C (centres unmarked) [NSC 163027]	≤ 1.44 µM	3.1 µg/mL (≈ 8.9 µM)	1.09 µM	1.09 µM	13.2	115 µM	0.6 µg/mL (≈ 1.72 µM)	IC50 [9]: 14.4 µM
Cc1cc2c(c(O)c1-c1c(C)cc(O)c3c1C(=O)C=CC3=O)C(=O)C=CC2=O [NSC 208731]	≤ 0.267 µM	0.6 µg/mL (≈ 1.6 µM)	0.267 µM	0.267 µM	1.0	13.4 µM	0.03 µg/mL (≈ 0.0801 µM)	
C=C(CN(C)C)C(=O)c1ccc(C)cc1C [NSC 382000]	≤ 0.46 µM	1.0 µg/mL (≈ 4.6 µM)	0.46 µM	0.46 µM	1.0	13.8 µM	0.1 µg/mL (≈ 0.46 µM)	
CC1COC2C3=C(C(=O)C=CC3=O)C3OC(=O)C4CCC5CC1CCC52C43 (centres unmarked) [NSC 401005]	≤ 0.271 µM	7.6 µg/mL (≈ 20.6 µM)	0.163 µM	0.163 µM	1.7	40.7 µM	1.8 µg/mL (≈ 4.89 µM)	
CC(C)(CN1C(=O)C(Cl)=C(Cl)C1=O)CN1C(=O)C(Cl)=C(Cl)C1=O [NSC 617145]		4.4 µg/mL (≈ 11 µM)			0.8		0.2 µg/mL (≈ 0.5 µM)	IC50 ([1]; IC50 (μg/ml) in TR/Trx Assay): 0.3 µM; IC50 ([1]; IC50TRTrx (μg/ml)): 0.3 µM; IC50 ([1]; in vitro IC50 TR/Trx (μg/ml)): ≤ 1.25 µM; IC50 [7]: 125 µM
CCc1cccc(CC)c1NC(=O)/C(Cl)=C(/Cl)C(=O)O [NSC 618605]	≤ 1.58 µM	7.2 µg/mL (≈ 22.8 µM)	0.38 µM	0.38 µM	0.8	108 µM	2.5 µg/mL (≈ 7.91 µM)	
COC(=O)C(CBr)CBr [NSC 620109]								GI50 (μg/ml) All Tumors [6]: 1.1 µg/mL (≈ 4.23 µM); TR/TRTrx [1]: 0.3; IC50 ([1]; read-out: IC50 (μg/ml) in TR/Trx Assay (converted)): 1.23 µM; IC50 ([1]; read-out: IC50TRTrx (μg/ml) (converted)): 1.23 µM; IC50 ([1]; read-out: in vitro IC50 TR/Trx (μg/ml) (converted)): ≤ 1.92 µM; IC50 ([7]; read-out: IC50GR (μg/ml) (converted)): 127 µM; GI50 (μg/ml) Leukemias [8]: 0.2 µg/mL (≈ 0.769 µM)
Cc1ccc(NC(=O)/C(Cl)=C(/Cl)C(=O)O)cc1 [NSC 622378]	≤ 1.82 µM	5.0 µg/mL (≈ 18.2 µM)	0.438 µM	0.438 µM	0.8	73 µM	1.6 µg/mL (≈ 5.84 µM)	
Cc1cccc2c1c1ccc3c(c1n2C)C(=O)C=CC3=O [NSC 645330]	≤ 18.2 µM	1.5 µg/mL (≈ 5.45 µM)	6.9 µM	6.87 µM	26.5	182 µM	0.3 µg/mL (≈ 1.09 µM)	IC50 [9]: 182 µM
O=[N+]([O-])C(=C(Sc1ccccc1)Sc1ccccc1)C(Cl)=C(Cl)Cl [NSC 665103]	≤ 0.239 µM	0.4 µg/mL (≈ 0.955 µM)	0.239 µM	0.239 µM	50.0	76.4 µM	0.04 µg/mL (≈ 0.0955 µM)	IC50 [9]: 11.9 µM
thioredoxin								EC50 [10]: 0.35 µM
